Test results published in patent US9861606B2, “Therapeutic for treating inflammatory lung disorders” (University College Cardiff Consultants Limited, priority 2012, dated 2018).
Values joined by “and” are separate entries in the source; they are usually repeats but may differ in a detail not shown here. Equal values may be shown once.

How the values were obtained:
BalbC mice [1] = test: Polycation-induced bronchial hyper-reactivity (Penh, plethysmography) in methacholine-challenged conscious mice; assay type: in vivo, mouse; details: nebulised 3 μM; poly-L-arginine 3 μM; methacholine challenge
Method: FIG. 5. […] prevent polycation-evoked BHR in methacholine-challenged mice. […] After the treatment, animals were placed in plethysmography chambers (Buxco, USA), allowed to settle for 10 minutes, and then they were challenged with methacholine (MCh, 0.1-10 mg/ml). Responses to methacholine obtained from the animals that have not received any treatments are shown in black symbols. From our previous estimates, 1-5% of the nebulised drug reaches the lung epithelium. […] FIG. 12. […] Male BalbC mice ( 25 g) were purchased from Harlan 1 week before the experimental protocols were performed. […] On the day of the experiment, the body weight of each mouse was recorded and mice were allowed to acclimatise to the chamber for at least 10 min before recordings were made. Then, respiratory activity was recorded for 5 min, to establish baseline value for Penh. […] Data were recorded for 3 minutes after each aerosol administration. The Penh values at each MCh concentration were averaged and expressed as a proportion of baseline Penh (Penh before treatment). […] The Penh values at each MCh concentration were averaged and expressed as a proportion of that day's baseline Penh (Penh after treatment). […] Effect of Polycations and of the Calcilytic NPS89636 on Bronchial Hyper-Reactivity in Unrestrained, Conscious Mice In Vivo Baseline airway hyper-responsiveness was measured by plethysmography. […]

BalbC mice [2] = test: Inflammatory cell infiltration in BALF of OVA-sensitised mice; assay type: in vivo, mouse; details: nebulised 3 micromolar
Method: FIG. 14. The calcilytic NPS89636 reduces inflammatory cell infiltration detected in the bronchioalveolar lavage fluid (BALF) from mice sensitized with OVA. 24 hours following the OVA sensitisation and nebulisation protocol described in detail in FIG. 13 in the presence of NS89636 (3 micromolar) or vehicle (0.3% DMSO), mice were killed and the BALF was collected by lavage. Cells from BALF were counted the same day using a haematocytometer. For differential cell count, BALF was concentrated by centrifugation 10 times, 100 microliters of the final solution was applied to a Cytospin 3 Shandon cell smearing system. The slides then were submerged into 1.5% Leisman stain in methanol for 6 min, then briefly washed in water twice, allowed to dry overnight, and the cells counted using 100× oil immersion objective. Data are presented as mean±S.E.M. Significant differences between vehicle and calcilytic are indicated, p<0.05, n=11.
Effect of the Calcilytic NPS 89636 on Inflammatory Cell Infiltration in the BALF of OVA-Sensitised Mice and LPS-Treated Guinea Pigs.
For the asthma model, OVA-sensitized mice were killed by a lethal overdose of sodium pentobarbitone (Euthatal), then using a cannula 1 ml of PBS was instilled into the lungs via an incision in the trachea. […]

[3] = Plasma ionised Ca2+ in guinea pigs after nebulised calcilytic treatment; assay type: in vivo, guinea pig
Text: Table 2. […] Accordingly, the treatment is not detrimental in mammals.

- Plasma ionised Ca++, Treatment (24 hours), Average ([3]; 24 hours, average of 6): 1.53 mM/L
Structure (SMILES): CCc1ccc(CC(C)(C)NCC(O)COc2cc(-c3ccc(C(=O)O)cc3)ccc2C#N)c(F)c1.Cl (stereo in doubt) [NPS89636, (S)-4′-cyano-3′-[3-[2-(4-ethyl-2-fluorophenyl)-1,1-dimethylethylamino]-2-hydroxy-propoxy]-biphenyl-4-carboxylic acid hydrochloride]
- Effect on poly-L-arginine-induced increase in airway reactivity (Penh) (BalbC mice [1]): completely prevented
- Effect on OVA-evoked inflammatory cell infiltration into the lung (BALF) (BalbC mice [2]): reduced
- Plasma ionised Ca++, Treatment (24 hours), individual animal ([3]; 24 hours after nebulised calcilytic, single animals, hydrochloride): 1.55 mM/L (2×) and 1.54 mM/L and 1.77 mM/L and 1.58 mM/L and 1.2 mM/L
